# Source: US20240024488A1, “COMPOUNDS AND USES THEREOF” (Foghorn Therapeutics Inc., priority 2020, published 2024)
# Assays:
# [1] = target: T1, HiBit-BRG1 fusion protein (Homo sapiens, UniProt P51532); test: HiBiT-BRG1 cell-based degradation assay (Nano-Glo HiBiT Lytic Detection, 24 h); details: HeLa cell line expressing HiBit-BRG1 and LgBit; for Dmax: read-out: BRG1 HiBit Degradation Maximum (%); for DC50: read-out: BRMG1 HiBit Degradation IC50
# T1 construct: expressed in transfected cells
# Procedure, shortened: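 Luminescence from Nano-Glo HiBiT lytic detection, read after 24 h compound exposure, scored degradation in a stable HeLa HiBiT-BRG1/LgBit line seeded at 5000 cells/well. DMSO wells defined 0% and 2 μM known BRM/BRG1 degrader wells defined full degradation.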
# HiBit-BRM fusion protein = target: T2, HiBit-BRM fusion protein (Homo sapiens, UniProt P51531); test: HiBiT-BRM cell-based degradation assay (Nano-Glo HiBiT Lytic Detection, 24 h); details: HeLa cell line expressing HiBiT-BRM; for DC50: read-out: BRM HiBit Degradation IC50
# T2 construct: expressed in transfected cells
# Procedure, shortened: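 HeLa cells stably expressing HiBiT-BRM were treated for 24 h with compounds (10-point 3-fold dilutions, 30 μM final top dose, in duplicate). HiBiT was detected by lytic LgBiT complementation luminescence. % degradation was normalized to DMSO (high control) and 2 μM of a reference BRM/BRG1 degrader (low control).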
# T1 sequence (P51532 whole entry, the tested form may be a part): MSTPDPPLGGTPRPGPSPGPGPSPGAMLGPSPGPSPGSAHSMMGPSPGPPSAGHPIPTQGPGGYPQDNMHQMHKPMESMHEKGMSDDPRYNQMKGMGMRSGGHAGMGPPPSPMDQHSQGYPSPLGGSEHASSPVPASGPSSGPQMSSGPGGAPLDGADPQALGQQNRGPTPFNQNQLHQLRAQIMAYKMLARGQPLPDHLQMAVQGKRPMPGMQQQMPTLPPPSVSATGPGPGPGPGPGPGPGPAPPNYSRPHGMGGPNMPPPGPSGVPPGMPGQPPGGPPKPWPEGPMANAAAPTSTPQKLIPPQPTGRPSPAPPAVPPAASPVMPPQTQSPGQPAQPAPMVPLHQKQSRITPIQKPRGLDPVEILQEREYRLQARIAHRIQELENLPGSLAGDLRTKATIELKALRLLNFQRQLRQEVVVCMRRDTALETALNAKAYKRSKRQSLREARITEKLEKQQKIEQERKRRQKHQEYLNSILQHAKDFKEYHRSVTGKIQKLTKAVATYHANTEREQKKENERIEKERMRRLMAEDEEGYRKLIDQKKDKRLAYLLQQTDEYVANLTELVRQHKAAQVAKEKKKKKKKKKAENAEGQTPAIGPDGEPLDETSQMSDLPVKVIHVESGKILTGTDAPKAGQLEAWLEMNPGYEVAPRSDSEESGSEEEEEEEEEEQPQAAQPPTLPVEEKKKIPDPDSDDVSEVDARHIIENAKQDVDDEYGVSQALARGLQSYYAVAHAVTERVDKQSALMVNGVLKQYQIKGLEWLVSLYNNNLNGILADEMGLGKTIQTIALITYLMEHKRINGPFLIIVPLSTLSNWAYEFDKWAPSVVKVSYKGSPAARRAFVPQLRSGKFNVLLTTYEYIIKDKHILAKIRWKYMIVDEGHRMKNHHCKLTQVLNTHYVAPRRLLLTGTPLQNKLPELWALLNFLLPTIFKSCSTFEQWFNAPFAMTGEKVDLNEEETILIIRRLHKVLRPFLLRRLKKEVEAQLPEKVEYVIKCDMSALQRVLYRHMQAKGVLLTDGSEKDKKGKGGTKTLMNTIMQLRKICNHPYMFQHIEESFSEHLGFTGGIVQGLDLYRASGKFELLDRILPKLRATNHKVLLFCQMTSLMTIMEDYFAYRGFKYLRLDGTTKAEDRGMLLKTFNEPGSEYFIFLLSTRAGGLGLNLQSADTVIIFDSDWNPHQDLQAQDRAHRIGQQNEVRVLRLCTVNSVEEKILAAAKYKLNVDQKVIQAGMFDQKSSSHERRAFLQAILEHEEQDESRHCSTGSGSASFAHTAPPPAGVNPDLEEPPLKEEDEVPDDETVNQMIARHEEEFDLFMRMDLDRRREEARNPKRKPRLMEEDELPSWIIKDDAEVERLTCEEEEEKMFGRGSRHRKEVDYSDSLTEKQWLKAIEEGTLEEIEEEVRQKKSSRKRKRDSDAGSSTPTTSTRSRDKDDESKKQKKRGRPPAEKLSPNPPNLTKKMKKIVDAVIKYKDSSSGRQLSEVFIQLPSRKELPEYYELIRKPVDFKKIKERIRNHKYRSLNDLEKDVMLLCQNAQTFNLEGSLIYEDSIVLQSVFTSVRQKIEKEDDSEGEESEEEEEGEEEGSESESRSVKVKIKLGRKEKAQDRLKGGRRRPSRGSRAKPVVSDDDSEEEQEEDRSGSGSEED
# T2 sequence (P51531 whole entry, the tested form may be a part): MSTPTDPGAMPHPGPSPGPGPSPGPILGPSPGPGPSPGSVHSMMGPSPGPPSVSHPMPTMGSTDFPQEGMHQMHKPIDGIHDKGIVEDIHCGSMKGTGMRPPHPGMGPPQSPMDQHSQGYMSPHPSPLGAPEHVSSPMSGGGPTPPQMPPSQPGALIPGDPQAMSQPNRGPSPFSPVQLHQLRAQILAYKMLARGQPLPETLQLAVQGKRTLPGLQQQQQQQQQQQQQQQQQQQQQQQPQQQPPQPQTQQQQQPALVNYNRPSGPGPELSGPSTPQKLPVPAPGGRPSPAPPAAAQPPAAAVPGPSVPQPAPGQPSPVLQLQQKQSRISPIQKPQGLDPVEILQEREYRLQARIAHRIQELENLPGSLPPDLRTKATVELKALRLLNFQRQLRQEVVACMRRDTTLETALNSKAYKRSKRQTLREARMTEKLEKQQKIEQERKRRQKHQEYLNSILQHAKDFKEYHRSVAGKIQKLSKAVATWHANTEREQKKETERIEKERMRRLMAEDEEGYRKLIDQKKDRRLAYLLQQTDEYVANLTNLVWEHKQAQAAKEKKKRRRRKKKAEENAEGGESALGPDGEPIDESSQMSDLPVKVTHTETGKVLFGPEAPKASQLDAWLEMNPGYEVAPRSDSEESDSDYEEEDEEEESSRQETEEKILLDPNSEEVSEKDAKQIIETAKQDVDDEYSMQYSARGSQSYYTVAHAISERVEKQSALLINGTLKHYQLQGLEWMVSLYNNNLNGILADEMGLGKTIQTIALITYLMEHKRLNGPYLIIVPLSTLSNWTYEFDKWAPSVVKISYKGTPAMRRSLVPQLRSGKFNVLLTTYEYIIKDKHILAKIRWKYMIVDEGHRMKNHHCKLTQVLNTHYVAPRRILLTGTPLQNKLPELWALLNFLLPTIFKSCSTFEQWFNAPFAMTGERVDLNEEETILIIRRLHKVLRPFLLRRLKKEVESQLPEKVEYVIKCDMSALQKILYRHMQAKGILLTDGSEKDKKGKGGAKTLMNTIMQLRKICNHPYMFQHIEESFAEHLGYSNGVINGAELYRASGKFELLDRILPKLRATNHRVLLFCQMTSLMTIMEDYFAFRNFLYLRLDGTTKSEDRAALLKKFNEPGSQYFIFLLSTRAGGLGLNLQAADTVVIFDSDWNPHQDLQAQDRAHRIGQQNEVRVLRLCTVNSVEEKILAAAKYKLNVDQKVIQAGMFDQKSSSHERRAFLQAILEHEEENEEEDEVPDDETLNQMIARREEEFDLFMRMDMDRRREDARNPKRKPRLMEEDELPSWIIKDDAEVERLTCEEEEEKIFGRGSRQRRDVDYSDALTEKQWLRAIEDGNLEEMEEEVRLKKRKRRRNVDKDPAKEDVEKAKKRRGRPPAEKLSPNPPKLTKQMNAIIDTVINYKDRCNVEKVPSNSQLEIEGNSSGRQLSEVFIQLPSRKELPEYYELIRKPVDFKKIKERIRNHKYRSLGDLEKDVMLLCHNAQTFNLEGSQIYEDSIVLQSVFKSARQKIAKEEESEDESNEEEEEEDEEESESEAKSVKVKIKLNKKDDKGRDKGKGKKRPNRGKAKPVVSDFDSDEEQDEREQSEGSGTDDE
Dmax [1] [%],DC50 [1] [nM],DC50 (HiBit-BRM fusion protein) [nM],Compound,BRM HiBit Degradation Maximum (%) (HiBit-BRM fusion protein)
> 75,> 100,< 10,"Cc1ncsc1-c1ccc([C@H](C)NC(=O)[C@@H]2C[C@@H](O)CN2C(=O)[C@@H](c2cc(OCCN3CC(c4[nH]c5nnc(-c6cc(F)ccc6O)cc5c4C)C3)no2)C(C)C)cc1 (racemic) [Compound 130, (2S,4R)-1-((R)-2-(3-(2-(3-(3-(5-fluoro-2-hydroxyphenyl)-5-methyl-7H-pyrrolo[2,3-c]pyridazin-6-yl)azetidin-1-yl)ethoxy)isoxazol-5-yl)-3-methylbutanoyl)-4-hydroxy-N-((S)-1-(4-(4-methylthiazol-5-yl)phenyl)ethyl)pyrrolidine-2-carboxamide]",A (“A” indicates maximum degradation ≥ 75%)
< 50,–,> 10,"Cc1ncsc1-c1ccc([C@H](C)NC(=O)[C@@H]2C[C@@H](O)CN2C(=O)[C@@H](c2cc(OCCNC3CC[C@]34C[C@H](c3cc5cc(-c6ccccc6O)nnc5[nH]3)C4)no2)C(C)C)cc1 (mixture of isomers) [Compound 132, (2S,4R)-4-hydroxy-1-((R)-2-(3-(2-(((1S,4s,6S)-6-(3-(2-hydroxyphenyl)-7H-pyrrolo[2,3-c]pyridazin-6-yl)spiro[3.3]heptan-1-yl)amino)ethoxy)isoxazol-5-yl)-3-methylbutanoyl)-N-((S)-1-(4-(4-methylthiazol-5-yl)phenyl)ethyl)pyrrolidine-2-carboxamide]",A (“A” indicates maximum degradation ≥ 75%)
< 50,–,–,Cc1ncsc1-c1ccc([C@H](C)NC(=O)[C@@H]2C[C@@H](O)CN2C(=O)[C@@H](c2cc(OCCN3CC(C4(C)CNc5nnc(-c6ccccc6O)cc54)C3)no2)C(C)C)cc1 (mixture of isomers) [Compound 134],C (“C” indicates maximum degradation < 50%)
< 50,–,> 10,"Cc1ncsc1-c1ccc([C@H](C)NC(=O)[C@@H]2C[C@@H](O)CN2C(=O)[C@@H](c2cc(C3CN(Cc4cc5cc(-c6ccccc6O)nnc5[nH]4)C3)no2)C(C)C)cc1 (racemic) [Compound 138, (2S,4R)-4-hydroxy-1-((R)-2-(3-(1-((3-(2-hydroxyphenyl)-7H-pyrrolo[2,3-c]pyridazin-6-yl)methyl)azetidin-3-yl)isoxazol-5-yl)-3-methylbutanoyl)-N-((S)-1-(4-(4-methylthiazol-5-yl)phenyl)ethyl)pyrrolidine-2-carboxamide]",A (“A” indicates maximum degradation ≥ 75%)
< 50,–,–,"Cc1ncsc1-c1ccc([C@H](C)NC(=O)[C@@H]2C[C@@H](O)CN2C(=O)[C@@H](c2cc(OCCN3CC(c4cc5cc(-c6ccccc6O)nnc5n4C)C3)no2)C(C)C)cc1 (racemic) [Compound 140, (2S,4R)-4-hydroxy-1-((R)-2-(3-(2-(3-(3-(2-hydroxyphenyl)-7-methyl-7H-pyrrolo[2,3-c]pyridazin-6-yl)azetidin-1-yl)ethoxy)isoxazol-5-yl)-3-methylbutanoyl)-N-((S)-1-(4-(4-methylthiazol-5-yl)phenyl)ethyl)pyrrolidine-2-carboxamide]",C (“C” indicates maximum degradation < 50%)
< 50,–,> 10,"Cc1ncsc1-c1ccc([C@H](C)NC(=O)[C@@H]2C[C@@H](O)CN2C(=O)[C@@H](c2cc(OCCN3C[C@@H]4[C@H](C3)[C@H]4c3cc4cc(-c5cccc(F)c5O)nnc4[nH]3)no2)C(C)C)cc1 (racemic) [Compound 142, (2S,4R)-1-((R)-2-(3-(2-((1R,5S,6R)-6-(3-(3-fluoro-2-hydroxyphenyl)-7H-pyrrolo[2,3-c]pyridazin-6-yl)-3-azabicyclo[3.1.0]hexan-3-yl)ethoxy)isoxazol-5-yl)-3-methylbutanoyl)-4-hydroxy-N-((S)-1-(4-(4-methylthiazol-5-yl)phenyl)ethyl)pyrrolidine-2-carboxamide]",A (“A” indicates maximum degradation ≥ 75%)

# Continued, compound first:
Compound,Dmax [1] [%],DC50 [1] [nM],DC50 (HiBit-BRM fusion protein) [nM],BRM HiBit Degradation Maximum (%) (HiBit-BRM fusion protein)
"Cc1ncsc1-c1ccc([C@H](C)NC(=O)[C@@H]2C[C@@H](O)CN2C(=O)[C@@H](c2cc(OCCN3CC(c4[nH]c5nnc(-c6cc(F)cc(Cl)c6O)cc5c4C)C3)no2)C(C)C)cc1 (racemic) [Compound 129, (2S,4R)-1-((R)-2-(3-(2-(3-(3-(3-chloro-5-fluoro-2-hydroxyphenyl)-5-methyl-7H-pyrrolo[2,3-c]pyridazin-6-yl)azetidin-1-yl)ethoxy)isoxazol-5-yl)-3-methylbutanoyl)-4-hydroxy-N-((S)-1-(4-(4-methylthiazol-5-yl)phenyl)ethyl)pyrrolidine-2-carboxamide]",> 50,> 100,> 10,A (“A” indicates maximum degradation ≥ 75%)
"Cc1ncsc1-c1ccc([C@H](C)NC(=O)[C@@H]2C[C@@H](O)CN2C(=O)[C@@H](c2cc(OCCN3C[C@@H]4[C@H](C3)[C@H]4c3[nH]c4nnc(-c5ccccc5O)cc4c3Cl)no2)C(C)C)cc1 (racemic) [Compound 131, (2S,4R)-1-[(2R)-2-(3-{2-[(1R,5S,6S)-6-[5-chloro-3-(2-hydroxyphenyl)-7H-pyrrolo[2,3-c]pyridazin-6-yl]-3-azabicyclo[3.1.0]hexan-3-yl]ethoxy}-1,2-oxazol-5-yl)-3-methylbutanoyl]-4-hydroxy-N-[(1S)-1-[4-(4-methyl-1,3-thiazol-5-yl)phenyl]ethyl]pyrrolidine-2-carboxamide]",> 50,> 100,> 10,A (“A” indicates maximum degradation ≥ 75%)
"Cc1ncsc1-c1ccc([C@H](C)NC(=O)[C@@H]2C[C@@H](O)CN2C(=O)[C@@H](c2cc(OCCNC3CC[C@]34C[C@@H](c3cc5cc(-c6ccccc6O)nnc5[nH]3)C4)no2)C(C)C)cc1 (mixture of isomers) [Compound 133, (2S,4R)-4-hydroxy-1-((R)-2-(3-(2-(((1S,4r,6R)-6-(3-(2-hydroxyphenyl)-7H-pyrrolo[2,3-c]pyridazin-6-yl)spiro[3.3]heptan-1-yl)amino)ethoxy)isoxazol-5-yl)-3-methylbutanoyl)-N-((S)-1-(4-(4-methylthiazol-5-yl)phenyl)ethyl)pyrrolidine-2-carboxamide]",> 50,> 100,> 10,A (“A” indicates maximum degradation ≥ 75%)
"Cc1ncsc1-c1ccc([C@H](C)NC(=O)[C@@H]2C[C@@H](O)CN2C(=O)[C@@H](c2cc(OCCN3CC(Oc4c[nH]c5nnc(-c6ccccc6O)cc45)C3)no2)C(C)C)cc1 (racemic) [Compound 139, (2S,4R)-4-hydroxy-1-[(2R)-2-{3-[2-(3-{[3-(2-hydroxyphenyl)-7H-pyrrolo[2,3-c]pyridazin-5-yl]oxy}azetidin-1-yl)ethoxy]-1,2-oxazol-5-yl}-3-methylbutanoyl]-N-[(1S)-1-[4-(4-methyl-1,3-thiazol-5-yl)phenyl]ethyl]pyrrolidine-2-carboxamide]",< 50,–,> 100,B (“B” indicates maximum degradation ≥ 50%)
